Source: patent US20230184744A1, “INTERTUMORAL HOMOGENEITY DETERMINED BY MiCK ASSAY” (Pierian Biosciences, LLC, priority 2014, published 2023)
Like-named read-outs stand apart in the source and are kept apart here.

Tests used:
[1] = test system: Lung adenocarcinoma (pleural effusion); experiment: MiCK assay, drug-induced apoptosis, Table 4 tumor B1; assay type: cell-based, human
From the text: (§1) Data were obtained optically using Mie light-scattering.
(§2) Patients: Three patients were included in this study. […] Patient A was diagnosed with pancreatic islet cell cancer; sample 1 was collected from lymph node and sample 2 was collected from the primary tumor. Patient B was diagnosed with lung cancer NSCLC adenocarcinoma; sample 1 was collected from pleural effusion and sample 2 was collected from solid tumor. […] Ages of the patients ranged from 51-79 years old with an average age of 65 years. One patient was […] and two were female.

[2] = test system: NSCLC, multi-focal, recurrent adenocarcinoma (site B); experiment: MiCK assay, drug-induced apoptosis, Table 3 tumor C2; assay type: cell-based, human
From the text: as §1
(§3) Do a test well. […] Look at the well under the inverted microscope. […] Repeat until optimal cell concentration is found. Plate the cells into the wells.

[3] = test system: Lung adenocarcinoma (solid tumor); experiment: MiCK assay, drug-induced apoptosis, Table 4 tumor B2; assay type: cell-based, human
From the text: as §1, §2

[4] = test system: NSCLC, multi-focal adenocarcinoma (site A); experiment: MiCK assay, drug-induced apoptosis, Table 3 tumor E1; assay type: cell-based, human
From the text: as §1, §3

[5] = test system: NSCLC, multi-focal adenocarcinoma (site B); experiment: MiCK assay, drug-induced apoptosis, Table 3 tumor E2; assay type: cell-based, human
From the text: as §1, §3

[6] = test system: Pancreatic islet cell cancer (lymph node); experiment: MiCK assay, drug-induced apoptosis, Table 4 tumor A1
Experimental: (§4) After overnight incubation, chemotherapy drugs were added to the wells of the 96-well plate in 5 μL aliquots or to the wells of a 384-well plate in 2.5 μL aliquots using an automated pipettor. The number of drugs or drug combinations and the number of concentrations tested depended on the number of viable malignant cells that were isolated from the tumor specimen. The drug concentrations, determined by molarity, were those indicated by the manufacturer as the desired blood level concentration plus or minus one serial dilution if enough cells were available.
(§5) Following drug addition, the plate was incubated for 30 min. at 37° C. in a 5% carbon dioxide humidified atmosphere incubator. Each well was then overlayed with sterile mineral oil, and the plate was placed into the incubator chamber of a microplate spectrophotometric reader. The optical density at 600 nanometers was read and recorded every 5 minutes over a period of 48 hours.
(§6) Patients: Three patients were included in this study. Two tumor samples from different tumor sites were collected from each patient. Both samples from each patient were collected on the same day.

[7] = test system: Lung adenocarcinoma (site B); experiment: MiCK assay, drug-induced apoptosis, Table 4 tumor C2
Experimental: as §4
(§7) Following drug addition, the plate was incubated for 30 min. at 37° C. in a 5% carbon dioxide humidified atmosphere incubator. Each well was then overlayed with sterile mineral oil, and the plate was placed into the incubator chamber of a microplate spectrophotometric reader. The optical density at 600 nanometers was read and recorded every 5 minutes over a period of 48 hours. Optical density increases, which correlates with apoptosis, were converted to kinetic units (KU) of apoptosis by a proprietary software ProApo with a formula described in the Kravtsov reference incorporated by reference (i.e. Kravtsov V. et al. “Use of the Microculture Kinetic Assay of apoptosis to determine chemosensitivities of leukemias.” Blood 1998; 92:968-980).
(§8) Purified tumor cells were cultured for 48 hours with individual drugs, and drug-induced apoptosis was measured using the MiCK assay as described in Example 1. Data were obtained optically using Mie light-scattering.

[8] = test system: NSCLC, bilateral well-differentiated adenocarcinoma (site 1A); experiment: MiCK assay, drug-induced apoptosis, Table 3 tumor B1; assay type: cell-based, human
From the text: as §1, §3

[9] = test system: NSCLC, multi-focal, recurrent adenocarcinoma (right lung); experiment: MiCK assay, drug-induced apoptosis, Table 3 tumor D1; assay type: cell-based, human
From the text: as §1, §3

[10] = test system: NSCLC, multi-focal, recurrent adenocarcinoma (site A); experiment: MiCK assay, drug-induced apoptosis, Table 3 tumor C1; assay type: cell-based, human
From the text: as §1, §3

[11] = test system: NSCLC, bilateral well-differentiated adenocarcinoma (site 1B); experiment: MiCK assay, drug-induced apoptosis, Table 3 tumor B2; assay type: cell-based, human
From the text: as §1, §3

[12] = test system: Probable mesothelioma (pleural effusion); experiment: MiCK assay, drug-induced apoptosis, Table 3 tumor A2; assay type: cell-based, human
Experimental: as §1
When the optimal cell concentration is reached, put the cells in the plate and incubate overnight in the incubating chamber of the incubator (37° C.).

[13] = test system: Lung small cell carcinoma (site A); experiment: MiCK assay, drug-induced apoptosis, Table 4 tumor C1
Experimental: as §4, §5, §6

[14] = test system: NSCLC, multi-focal, recurrent adenocarcinoma (lymph node); experiment: MiCK assay, drug-induced apoptosis, Table 3 tumor D2; assay type: cell-based, human
From the text: as §1, §3

[15] = test system: Pancreatic islet cell cancer (primary tumor); experiment: MiCK assay, drug-induced apoptosis, Table 4 tumor A2; settings: 48 hours with drug
Experimental: as §4, §7, §8

[16] = Table 4 tumor B1: Lung adenocarcinoma (pleural effusion), 48 hours with drug
[17] = Table 4 tumor B2: Lung adenocarcinoma (solid tumor), 48 hours with drug
[18] = Table 4 tumor A1: Pancreatic islet cell cancer (lymph node), 48 hours with drug
[19] = Table 4 tumor C2: Lung adenocarcinoma (site B), 48 hours with drug
[20] = Table 3 tumor B1: NSCLC, bilateral well-differentiated adenocarcinoma (site 1A), 48 hours with drug
[21] = Table 3 tumor D1: NSCLC, multi-focal, recurrent adenocarcinoma (right lung), 48 hours with drug
[22] = Table 3 tumor B2: NSCLC, bilateral well-differentiated adenocarcinoma (site 1B), 48 hours with drug
[23] = Table 3 tumor A2: Probable mesothelioma (pleural effusion), 48 hours with drug
[24] = Table 4 tumor C1: Lung small cell carcinoma (site A), 48 hours with drug
[25] = Table 3 tumor E1: NSCLC, multi-focal adenocarcinoma (site A), 48 hours with drug
[26] = Table 3 tumor C1: NSCLC, multi-focal, recurrent adenocarcinoma (site A), 48 hours with drug
[27] = Table 3 tumor D2: NSCLC, multi-focal, recurrent adenocarcinoma (lymph node), 48 hours with drug
[28] = Table 3 tumor C2: NSCLC, multi-focal, recurrent adenocarcinoma (site B), 48 hours with drug
[29] = Table 3 tumor E2: NSCLC, multi-focal adenocarcinoma (site B), 48 hours with drug

Row | SMILES | kinetic units (KU) of apoptosis [1, 16] | kinetic units (KU) of apoptosis [3, 17] | kinetic units (KU) of apoptosis [6, 18] | kinetic units (KU) of apoptosis [7, 19] | kinetic units (KU) of apoptosis [8, 20] | kinetic units (KU) of apoptosis [9, 21] | kinetic units (KU) of apoptosis [11, 22] | kinetic units (KU) of apoptosis [12, 23] | kinetic units (KU) of apoptosis [13, 24] | kinetic units (KU) of apoptosis [4, 25] | kinetic units (KU) of apoptosis [15] | kinetic units (KU) of apoptosis [10, 26] | kinetic units (KU) of apoptosis [14, 27] | kinetic units (KU) of apoptosis [2, 28] | kinetic units (KU) of apoptosis [5, 29] | also measured
1 | O=P1(N(CCCl)CCCl)NCCCO1 (stereo not shown) [4HC (Cytoxan), Cytoxan] | – | – | – | – | – | – | – | – | – | – | – | – | – | – | – | kinetic units (KU) of apoptosis [1]: 1.20 KU; kinetic units (KU) of apoptosis [2]: 0.00 KU; kinetic units (KU) of apoptosis [3]: 2.40 KU; kinetic units (KU) of apoptosis [4]: 0.50 KU; kinetic units (KU) of apoptosis [5]: 0.30 KU; kinetic units (KU) of apoptosis [6]: 3.00 KU; kinetic units (KU) of apoptosis [7]: 2.40 KU; kinetic units (KU) of apoptosis [8]: 1.10 KU; kinetic units (KU) of apoptosis [9]: 1.20 KU; kinetic units (KU) of apoptosis [10]: 0.60 KU; kinetic units (KU) of apoptosis [11]: 1.20 KU; kinetic units (KU) of apoptosis [12]: 3.10 KU; kinetic units (KU) of apoptosis [13]: 1.80 KU; kinetic units (KU) of apoptosis [14]: 1.20 KU
2 | COc1cccc2c1C(=O)c1c(O)c3c(c(O)c1C2=O)C[C@@](O)(C(=O)CO)C[C@@H]3O[C@H]1C[C@H](N)[C@@H](O)[C@H](C)O1 [Epirubicin] | 2.70 KU | 3.50 KU | 1.61 KU | 3.20 KU | 0.90 KU | 1.40 KU | 1.20 KU | 3.80 KU | 8.70 KU | – | – | – | – | – | – | –
3 | COc1cc([C@@H]2c3cc4c(cc3[C@@H](O[C@@H]3O[C@@H]5CO[C@@H](C)O[C@H]5[C@H](O)[C@H]3O)[C@H]3COC(=O)[C@H]23)OCO4)cc(OC)c1O [Etoposide] | 2.30 KU | – | 1.08 KU | – | 1.10 KU | 1.60 KU | 1.20 KU | 1.20 KU | 4.60 KU | 0.40 KU | 0.00 KU | 0.80 KU | 0.90 KU | – | – | –
4 | CO[C@H]1C[C@@H]2CC[C@@H](C)[C@@](O)(O2)C(=O)C(=O)N2CCCC[C@H]2C(=O)O[C@H]([C@H](C)C[C@@H]2CC[C@@H](OCCO)[C@H](OC)C2)CC(=O)[C@H](C)/C=C(\C)[C@@H](O)[C@@H](OC)C(=O)[C@H](C)C[C@H](C)/C=C/C=C/C=C/1C [Everolimus] | – | – | 1.31 KU | 1.00 KU | – | – | – | – | 0.50 KU | – | 0.00 KU | – | – | – | – | –
5 | Nc1ccn([C@@H]2O[C@H](CO)[C@@H](O)C2(F)F)c(=O)n1 [Gemcitabine] | 1.10 KU | 3.20 KU | 1.08 KU | 1.30 KU | 1.20 KU | 0.10 KU | 1.10 KU | 0.70 KU | 2.20 KU | 0.30 KU | – | 0.00 KU | 0.90 KU | 0.70 KU | 0.50 KU | –
6 | CCc1c2c(nc3ccc(OC(=O)N4CCC(N5CCCCC5)CC4)cc13)-c1cc3c(c(=O)n1C2)COC(=O)[C@]3(O)CC [Irinotecan] | 0.60 KU | – | 1.50 KU | 2.10 KU | 1.60 KU | 0.40 KU | 1.50 KU | 1.30 KU | 1.40 KU | 0.60 KU | 1.16 KU | 0.40 KU | 0.90 KU | 0.30 KU | 0.10 KU | –
7 | CN(Cc1cnc2nc(N)nc(N)c2n1)c1ccc(C(=O)N[C@@H](CCC(=O)O)C(=O)O)cc1 [Methotrexate] | 1.40 KU | 1.30 KU | 0.66 KU | 0.60 KU | 1.00 KU | – | – | 0.50 KU | 1.30 KU | – | – | – | – | – | – | –
8 | O=C1[O][Pt]2([NH][C@@H]3CCCC[C@H]3[NH]2)[O]C1=O [Oxaliplatin] | 3.00 KU | 3.10 KU | 1.08 KU | 2.50 KU | – | – | – | – | 4.40 KU | – | – | – | – | – | – | –
9 | CCN(CC)CCNC(=O)c1c(C)[nH]c(/C=C2\C(=O)Nc3ccc(F)cc32)c1C [Sunitinib] | 0.70 KU | – | 1.93 KU | – | – | – | – | – | – | – | 2.06 KU | – | – | – | – | –
10 | CC[C@@]1(O)C(=O)OCc2c1cc1n(c2=O)Cc2cc3c(CN(C)C)c(O)ccc3nc2-1 [Topotecan] | 1.30 KU | – | – | 4.10 KU | 1.70 KU | 0.40 KU | 0.80 KU | 3.60 KU | 9.30 KU | 0.70 KU | – | 0.50 KU | 1.00 KU | 0.00 KU | 0.30 KU | –
11 | CC[C@]1(O)C[C@H]2CN(CCc3c([nH]c4ccccc34)[C@@](C(=O)OC)(c3cc4c(cc3OC)N(C=O)[C@H]3[C@@](O)(C(=O)OC)[C@H](OC(C)=O)[C@]5(CC)C=CCN6CC[C@]43[C@@H]65)C2)C1 [Vincristine] | 0.90 KU | – | 0.82 KU | 1.60 KU | 1.30 KU | 0.40 KU | 1.50 KU | 2.80 KU | 1.00 KU | 0.10 KU | – | 0.00 KU | 0.90 KU | 0.40 KU | 0.10 KU | –
